Measurements published in patent US20260176289A1, “SMALL MOLECULE INHIBITORS OF KRAS PROTEINS” (Merck Sharp & Dohme LLC, priority 2022, published 2026).

What was measured:
Assay type in all cases: biochemical
[1] = target: T1, KRAS G12C (amino acids 1-169) (Homo sapiens, UniProt P01116, G12C); assay: SOS-catalyzed nucleotide exchange assay (Procedure B, BODIPY FL GDP displacement), KRAS G12C; details: read-out: KRAS G12C GNE IC50
T1 construct: made in house; host or cells: E. coli
Procedure: (§1) Procedure for SOS-Catalyzed Nucleotide Exchange Assay for KRAS-G12C/D/V/WT (Procedure B)
(§2) Recombinant KRAS G12C (amino acids 1-169, SEQ ID NO:9), KRAS G12D (amino acids 1-169, SEQ ID NO: 10), KRAS G12V (amino acids 1-169, SEQ ID NO: 11), KRAS WT (amino acids 1-169, SEQ ID NO:12) and SOS1 (amino acids 564-1049, SEQ ID NO: 13) proteins were expressed in E. coli and purified by affinity chromatography. To prepare each BODIPY™ FL GDP-bound KRAS protein, 50 μM KRAS proteins were incubated with 0.5 mM BODIPY™ FL GDP (Invitrogen, G22360) in a loading buffer (20 mM Tris-HCl pH 7.5, 50 mM NaCl, 1 mM DTT and 2.5 mM EDTA) for 1 hour on ice. After the incubation, MgCl2 was added to a final concentration of 10 mM, followed by an incubation at room temperature for 30 minutes. The mixtures were allowed to pass through a NAP-5 column to remove free nucleotides and purified BODIPY™ FL GDP-bound KRAS G12C, G12D, G12V and WT proteins were used for compound evaluation.
(§3) The inhibitory activity of compounds on recombinant KRAS is measured by the displacement of the bound BODIPY™ GDP. Specifically, 2.5 nM of each BODIPY™ FL GDP-bound KRAS complex was incubated with various concentrations of compound in a reaction buffer (20 mM Tris-HCl pH 7.5, 100 mM NaCl, 1 mM MgCl2, 2 mM DTT, 0.1% Tween 20) at 25° C. for 1 hour. After the incubation, recombinant SOS1 and GMPPNP (Jena Bioscience GmbH, NU-401) were added and incubated at room temperature for 30 minutes to proceed SOS1-dependent GDP-GTP exchange reaction on KRAS. Displacement of BODIPY™ FL GDP by Guanosine-5′-[(β,γ)-imido]triphosphate, Tetralithium salt (GMPPNP) was measured by calculating the ratio of fluorescence intensities of BODIPY™ FL before and after the exchange reaction. Percent Inhibition was calculated by setting the fluorescence ratio from the reaction without test compound (DMSO control) and the fluorescence ratio from the reaction without SOS1 and GMPPNP as 0% and 100% inhibition, respectively. Dose response curves were analyzed using a 4-parameter logistic model to calculate IC50 values.

[2] = target: T2, KRAS G12D (amino acids 1-169) (Homo sapiens, UniProt P01116, G12D); assay: SOS-catalyzed nucleotide exchange assay (Procedure B, BODIPY FL GDP displacement), KRAS G12D; details: read-out: KRAS G12D GNE IC50
T2 construct: made in house; host or cells: E. coli
T2 sequence (P01116 with tags, fused parts or gaps isoform P01116-2 G12D): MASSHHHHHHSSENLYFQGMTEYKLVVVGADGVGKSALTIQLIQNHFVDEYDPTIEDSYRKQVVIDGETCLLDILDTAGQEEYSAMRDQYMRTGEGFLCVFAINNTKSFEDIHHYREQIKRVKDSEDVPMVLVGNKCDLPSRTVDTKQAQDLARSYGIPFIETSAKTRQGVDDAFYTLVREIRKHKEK
Procedure: as §1, §2, §3

[3] = target: T3, KRAS G12V (amino acids 1-169) (Homo sapiens, UniProt P01116, G12V); assay: SOS-catalyzed nucleotide exchange assay (Procedure B, BODIPY FL GDP displacement), KRAS G12V; details: read-out: KRAS G12V GNE IC50
T3 construct: made in house; host or cells: E. coli
T3 sequence (P01116 with tags, fused parts or gaps isoform P01116-2 G12V): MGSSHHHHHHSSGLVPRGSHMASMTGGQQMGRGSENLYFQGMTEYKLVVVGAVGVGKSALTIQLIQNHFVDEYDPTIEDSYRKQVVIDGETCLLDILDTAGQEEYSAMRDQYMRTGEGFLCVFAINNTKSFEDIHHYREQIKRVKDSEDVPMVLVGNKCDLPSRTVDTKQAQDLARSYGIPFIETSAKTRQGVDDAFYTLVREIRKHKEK
Procedure: as §1, §2, §3

[4] = target: T4, KRAS WT (amino acids 1-169) (Homo sapiens, UniProt P01116); assay: SOS-catalyzed nucleotide exchange assay (Procedure B, BODIPY FL GDP displacement), KRAS WT; details: read-out: KRAS WT GNE IC50
T4 construct: made in house; host or cells: E. coli
T4 sequence (P01116 with tags, fused parts or gaps isoform P01116-2): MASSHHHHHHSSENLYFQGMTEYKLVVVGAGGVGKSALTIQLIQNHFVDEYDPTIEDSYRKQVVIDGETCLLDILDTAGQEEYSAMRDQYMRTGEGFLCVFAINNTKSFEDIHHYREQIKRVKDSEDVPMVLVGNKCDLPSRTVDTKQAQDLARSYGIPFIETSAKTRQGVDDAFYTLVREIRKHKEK
Procedure: as §1, §2, §3

T1 sequence (P01116 with tags, fused parts or gaps isoform P01116-2 G12C): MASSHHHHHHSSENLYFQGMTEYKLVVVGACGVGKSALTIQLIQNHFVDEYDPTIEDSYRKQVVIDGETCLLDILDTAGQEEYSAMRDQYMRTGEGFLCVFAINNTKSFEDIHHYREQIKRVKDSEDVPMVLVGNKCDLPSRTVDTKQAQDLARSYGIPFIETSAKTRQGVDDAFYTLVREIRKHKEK

Row | IC50 [1] | IC50 [2] | IC50 [3] | IC50 [4] | SMILES
1 | 787 nM | 1320 nM | 758 nM | 1480 nM | Cc1cc2[nH]ncc2c(-c2nccc3c2sc2nc(OC[C@@]45CCCN4C[C@H](F)C5)nc(NC45CC(C4)C5)c23)c1C(F)(F)F [Ex-181, N-(bicyclo[1.1.1]pentan-1-yl)-2-(((2R,7aS)-2-fluoro-tetrahydro-1H-pyrrolizin-7a(5H)-yl)-methoxy)-8-(6-methyl-5-(trifluoromethyl)-1H-indazol-4-yl)pyrido [4′,3′:4,5]thieno[2,3-d] pyrimidin-4-amine]
2 | 5.33 nM | 1.68 nM | 4.2 nM | 3.82 nM | CCC1CCc2cc3[nH]ncc3c(-c3nccc4c3sc3nc(OC[C@@]56CCCN5C/C(=C\F)C6)nc(N5CCOC[C@@](C)(O)C5)c34)c21 (stereo partly drawn) [Ex-94, (6S)-4-(8-(5-ethyl-1,5,6,7-tetrahydrocyclopenta[f]in-dazol-4-y1)-2-(((S,Z)-2-(fluoromethylene)tetrahy-dro-1H-pyrrolizin-7a(5H)-yl)methoxy)pyrido[4′,3':4,5]thi-eno[2,3-d]pyrimidin-4-y1)-6-methyl-1,4-oxazepan-6-ol]
3 | 7.03 nM | 1.64 nM | 3.7 nM | 3.13 nM | C=CC1CCc2cc3[nH]ncc3c(-c3nccc4c3sc3nc(OC[C@@]56CCCN5C[C@H](F)C6)nc(N5CCOC[C@@](C)(O)C5)c34)c21 (single isomer, unassigned) [Ex-93]
4 | 168 nM | 43.9 nM | 60 nM | 71.5 nM | C[C@@]1(O)COCCN(c2nc(OC[C@@]34CCCN3C[C@H](F)C4)nc3sc4c(-c5c6c(cc7[nH]ncc57)CCC6C5CC5)nccc4c23)C1 (stereo partly drawn) [Ex-104, (6S)-4-(8-(5-cyclopropyl-1,5,6,7-tetrahydrocyclopenta[f]in-dazol-4-yl)-2-(((2R,7aS)-2-fluorotetrahydro-1H-pyrrolizin-7a(5H)-yl)methoxy)pyrido[4′,3′:4,5]thieno[2,3-d]pyrimidin-4-yl)-6-methyl-1,4-oxazepan-6-ol]
5 | 40.1 nM | 32.6 nM | 66.7 nM | 58 nM | Cc1cc2[nH]ncc2c(-c2nccc3c2sc2nc(OC[C@@]45CCCN4C[C@H](F)C5)nc(N4CCOC[C@@](C)(O)C4)c23)c1C(C)C [Ex-137, (6S)-4-(2-(((2R, 7aS)-2-fluorotetra-hydro-1H-pyrrol-izin-7a(5H)-yl)meth-oxy)-8-(5-isopropyl-6-methyl-1H-ind-azol-4-yl)pyrido [4′,3′:4,5]thieno[2,3-d]pyrimidin-4-yl)-6-methyl-1,4-oxaze-pan-6-ol]
6 | 44.4 nM | 18.7 nM | 38.1 nM | 34.1 nM | C[C@@]1(O)COCCN(c2nc(OC[C@@]34CCCN3C[C@H](F)C4)nc3sc4c(-c5c6c(cc7[nH]ncc57)CCC6)nccc4c23)C1 [Ex-111, (6S)-4-(2-(((2R,7aS)-2-fluorotetrahydro-1H-pyrrolizin-7a(5H)-yl)methoxy)-8-(1,5,6,7-tetrahydrocyclopenta[f]in-dazol-4-yl)pyrido[4′,3′:4,5]thieno [2,3-d]pyrimidin-4-yl)-6-methyl-1,4-oxazepan-6-ol]
7 | 340 nM | 438 nM | 490 nM | 432 nM | CC(=O)N1CC(Nc2nc(OC[C@@]34CCCN3C[C@H](F)C4)nc3sc4c(-c5c(C(F)(F)F)c(C)cc6[nH]ncc56)nccc4c23)C1 [Ex-190, 1-(3-((2-(((2R,7aS)-2-fluorotetrahydro-1H-pyr-rolizin-7a(5H)-yl)meth-oxy)-8-(6-methyl-5-(tri-fluoromethyl)-1H-indazol-4-yl)pyrido[4′,3′:4,5]thieno[2,3-d]pyrimidin-4-yl)amino)azetidin-1-yl)-ethan-1-one]
8 | 24.9 nM | 13.1 nM | 33.9 nM | 34 nM | C#Cc1c(Cl)cc2[nH]ncc2c1-c1nccn2c1c(F)c1nc(OC[C@@]34CCCN3C[C@H](F)C4)nc(N3CCOC[C@@](C)(O)C3)c12 [Ex-304, (S)-4-(9-(6-chloro-5-ethynyl-1H-indazol-4-yl)-10-fluoro-2-(((2R,7aS)-2-fluorotetrahydro-1H-pyrrolizin-7a(5H)-yl)methoxy)pyrazino[1′,2′:1,5]pyrrolo[3,2-d]pyrimidin-4-yl)-6-methyl-1,4-oxazepan-6-ol]
9 | 107 nM | 49.5 nM | 86.1 nM | 107 nM | Cc1cc2[nH]ncc2c(-c2nccn3c2c(C)c2nc(OC[C@@]45CCCN4C[C@H](F)C5)nc(N4CCOC[C@@](C)(O)C4)c23)c1C(F)(F)F (single isomer, unassigned) [Ex-301]
10 | 39 nM | 21.9 nM | 97.2 nM | 57.3 nM | C[C@@H]1C[C@@H]1c1c(Cl)cc2[nH]ncc2c1-c1nccc2c1sc1nc(OC[C@@]34CCCN3C[C@H](F)C4)nc(N3CCOC[C@@](C)(O)C3)c12 (atropisomer, axis not shown; (aS)) [Ex-68, (S)-4-((R)-8-(6-chloro-5-((1S,2R)-2-methylcyclopropyl)-1H-indazol-4-yl)-2-(((2R,7aS)-2-fluorotetrahydro-1H-pyrrolizin-7a(5H)-yl)methoxy)pyrido[4′,3′:4,5]thi-eno[2,3-d]pyrimidin-4-yl)-6-methyl-1,4-oxazepan-6-ol]
11 | 91.5 nM | 49.8 nM | 65 nM | 99.4 nM | CCCC1CCc2cc3[nH]ncc3c(-c3nccc4c3sc3nc(OC[C@@]56CCCN5C[C@H](F)C6)nc(N5CCOC[C@@](C)(O)C5)c34)c21 (some centres unmarked) [Ex-95]
12 | 138 nM | 80 nM | 245 nM | 171 nM | C[C@@]1(O)COCCN(c2nc(OC[C@@]34CCCN3C[C@H](F)C4)nc3sc4c(-c5c6c(cc7[nH]ncc57)CCC6=O)nccc4c23)C1 [Ex-89, 4-(2-(((2R,7aS)-2-fluorotetrahydro-1H-pyrrolizin-7a(5H)-yl)methoxy)-4-((S)-6-hydroxy-6-methyl-1,4-oxazepan-4-yl)pyrido[4′,3′:4,5]thieno [2,3-d]pyrimidin-8-yl)-6,7-dihydrocyclopenta[f]inda-zol-5(1H)-one]
13 | 6.44 nM | 1.99 nM | 5.16 nM | 4 nM | CC1CC(F)(F)c2cc3[nH]ncc3c(-c3nccc4c3sc3nc(OC[C@@]56CCCN5C[C@H](F)C6)nc(N5CCOC[C@@](C)(O)C5)c34)c21 (stereo partly drawn) [Ex-101, (6S)-4-(8-(7,7-difluoro-5-methy1-1,5,6,7-tetrahydrocyclopenta[f]in-dazol-4-yl)-2-(((2R,7aS)-2-fluorotetrahydro-1H-pyrrolizin-7a(5H)-yl)methoxy)pyrido[4′,3′:4,5]thi-eno[2,3-d]pyrimidin-4-yl)-6-methyl-1,4-oxazepan-6-ol]
14 | 1140 nM | 380 nM | 837 nM | 732 nM | C[C@@]1(O)COCCN(c2nc(OC[C@@]34CCCN3C[C@H](F)C4)nc3c(I)c4c(-c5c(C6CC6)c(Cl)cc6[nH]ncc56)nccn4c23)C1 [Ex-303, (S)-4-(9-(6-chloro-5-cyclopropyl-1H-indazol-4-yl)-2-(((2R,7aS)-2-fluorotetrahydro-1H-pyrrolizin-7a(5H)-yl)methoxy)-10-iodopyrazino [1′,2′:1,5]pyrrolo [3,2-d]pyrimidin-4-yl)-6-methyl-1,4-oxazepan-6-ol]
